The values below are quoted from earlier work in paper PMC9099121, “Population pharmacokinetic and exposure‐response analyses from ALTA‐1L: Model‐based analyses supporting the brigatinib dose in ALK‐positive NSCLC” (Clinical and Translational Science, 2022).

This series deals with ALK-rearranged advanced NSCLC. More on the design: method as in PMID 31020351. Particulars: time-dependent exposure metric; 95% CI: 0.92–1.17; nonsignificant; cited from earlier work.

Consider `Cc1cc(Nc2ncc(Cl)c(Nc3ccccc3S(=O)(=O)C(C)C)n2)c(OC(C)C)cc1C1CCNCC1` [ceritinib], for which the “HR, exposure versus risk of disease progression” value is recorded as 1.04.
